One assay concerns hard corn seedlings. As to the kind of experiment: Germination of hard corn seeds on MSO medium with 5-azaC: seedling phenotype. To be noted: increasing concentration of 5-azaC (0.1-1 mM), aerial part and roots, 24° C. in the dark. Format: in vivo, Triticum durum. The protocol: According to this method, the germination of the seeds is generally effected at a temperature ranging from 20 to 30° C., preferably from 22 to 26° C., in the dark and in the presence of concentrations of 5-azaC ranging from 0.1 mM to 2 mM, preferably from 0.3 mM to 0.5 mM.
Seeds of hard corn (Triticum durum) were sterilized in a solution of ethyl alcohol at 70% for 10 minutes under stirring. After eliminating the ethanol, the seeds were treated with a solution containing sodium hypochlorite (ACE) at 50% and Sodium Dodecyl Sulfate (SDS) at 0.5%, incubated at room temperature for 20 minutes under light stirring.
The seeds were subsequently washed with sterile H2O until the complete removal of the foam (about 7-8 times) and about 15-20 seeds were then placed in a Magenta Box each containing: 30 ml of MSO substrate (Sucrose 15 g/l, Muraschige-Sckug MS salts 2.2 g/l, Thiamin 0.2 mg/l, Myoinositol 50 mg/l, pH 5.6, agar 7 g/l), different concentrations of 5-azac (0.1 mM, 0.3 mM, 0.5 mM and 1 mM) and germinated in a chamber thermostat-regulated at 24° C. in the dark.
Seeds of hard corn left to germinate in MSO medium without 5-azac, were used as a control.

A further assay has as its system genomic DNA of hard corn. As to the kind of experiment: Digestion of genomic DNA with restriction enzymes sensitive to methylation (CfoI, Hpa2, Msp1). Further details: species or system Triticum durum. Particulars: seedlings about 21 days after germination; 5-azaC 0.1, 0.3, 0.5, 1 mM vs control. The protocol: Analyses for correlating the demethylation degree of the DNA with an increase in the undifferentiated gene expression were carried out by digestion of the genomic DNA with restriction enzymes sensitive to methylation, i.e. enzymes which preferentially act on hypomethylated DNA.
Analyses for correlating the demethylation degree of the DNA with an increase in the undifferentiated gene expression were carried out by digesting the genomic DNA with the following restriction enzymes: Cfol, Hpa2, Msp1 (Roche), sensitive to methylation.
For each reaction, about 5 μg of total DNA were digested with 20 units of enzyme in a final volume of 150 μl, for a night at 37° C. Each digestion product was precipitated and resuspended in 30μl of H2O. The digestion mixtures were separated on agarose gel at 0.8% and subjected to horizontal electrophoresis, for a night at […] (Sambrook, J. et al., 1989, Cold Spring Harbor Laboratory Press).

In assay [1] the test system is undifferentiated gene expression in hard corn seedlings. As to the kind of experiment: RT-PCR amplification and sequencing of genes expressed in different growth phases, from seedlings germinated with 5-AzaCytidine. To be noted: MSO germination medium; 0.1-1 mM tested. Also noted: species or system Triticum durum. The text has this: Furthermore, to confirm the efficiency of the method used, several genes were identified which are expressed in different growth phases of soft corn, of which a large number of sequences are available as this species of corn is more widely studied that hard corn. On the basis of the sequences deposited in data banks (National Center for Biotechnology Information, NCBI; European Bioinformatics Institute, EBI) pairs of oligonucleotides identified in the zones flanking the region encoding the nucleotidic sequence, were prepared, and subsequently used as primers for the amplification of the whole gene being tested. […]
The cDNA inserts were first amplified with the appropriate primers, cloned in the vector p-GEMT and introduced into the competent cells Escherichia coli (E. coli) DH5α. The recombinant clones, containing the expected fragments, were characterized by restriction analysis and their identity was confirmed by effecting sequence reactions carried out using the ABI Prism Big TaqDyeDeoxyTerminator Cycle Sequencing Kit (Applied Biosystems, Nr. 4303149) and analyzed with the automatic ABI 377 DNA Sequencer (Perkin Elmer ABI Prism). […]

For `Nc1ncn([C@@H]2O[C@H](CO)[C@@H](O)[C@H]2O)c(=O)n1` [5-azaC, 5-AzaCytidine], the “phenotype of the seedlings compared with control cultivated without 5-azaC” value in the assay with hard corn seedlings is recorded as “slowing down in the development of the seedlings”. Also, the “digestion of the genomic DNA by methylation-sensitive restriction enzymes (demethylation degree)” value in the assay with genomic DNA of hard corn is given as “different digestion of the genomic DNA”. Besides, the “concentration in the germination medium giving the best results (totipotent gene expression)” value in assay [1] lay in the range of 0.3 to 0.5 mM.
